One data set relates to adult cat fleas. The data set is described as follows: Effect on cat flea (1): glass tube residue contact test, knock-down and mortality. The data set is classed as in vivo, cat flea (Ctenocephalides felis). Also noted: After 3 hours (KD) knocking-down rate: unit not given here. As for the experimental part:
Each compound was dissolved in acetone to a predetermined concentration and 0.1 ml of the resulting solution was dropped into the bottom of a glass tube with a diameter of 2.8 cm and a height of 12 cm and air-dried. After the air-drying, 10 adult cat fleas were placed in the glass tube and the glass tube was closed with nylon mesh and allowed to stand under conditions of a room temperature of 26° C. and a humidity of 80%. The knocked-down (KD) fleas after 3 hours and the dead and alive after 24 hours and 48 hours were counted, and the knocking-down rate and the mortality were calculated. Fipronil was used as a positive control. In a control experiment, no treatment with an agent was carried out.

For another data set, the system named is std:ddy strain male mice. The data set is described as follows: Toxicity to mouse, administration into the stomach. It counts as in vivo. As for the experimental part:
The compound listed in Table 1 or Fipronil was dissolved in olive oil to a predetermined concentration, and the resulting solution was directly administered into the stomachs of std:ddy strain male mice by the use of a probe. The dose was 30 mg/kg or 100 mg/kg. Whether the mice were alive or dead was observed 3 hours, 1 day, 7 days and 14 days after the administration.

[1] abbreviates: 1 mg/tube, 10 adult cat fleas, 26° C., humidity 80%.
Setting [2] is: 30 mg/kg into the stomach, in olive oil, male mice.

In the case of `Fc1ccc2c(c1)c(SC(F)(Cl)Cl)cn2-c1ncc(C(F)(F)F)cc1Cl` [Compound 2, 1-(3-chloro-5-trifluoromethylpyridin-2-yl)-3-(dichlorofluoromethylthio)-5-fluoroindole], the “After 3 hours (KD) knocking-down rate” value in the data set with adult cat fleas (0.001 mg/tube), in the data set on adult cat fleas (0.01 mg/tube), with adult cat fleas (0.1 mg/tube) and with adult cat fleas (setting [1]) was 0 in each case. Besides, the “After 1 day (mortality)” value in the data set with adult cat fleas (0.001 mg/tube) is on record as 0%; in the data set with adult cat fleas (0.01 mg/tube) it was 10%; in the data set with adult cat fleas (0.1 mg/tube) it was 100%; with adult cat fleas (1 mg/tube) it was 100%. The “After 2 days (mortality)” value was 0% in the data set with adult cat fleas (0.001 mg/tube), 50% in the data set with adult cat fleas (0.01 mg/tube), 100% in the data set with adult cat fleas (0.1 mg/tube) and 100% in the data set on adult cat fleas (1 mg/tube).
As for `FC(Cl)(Cl)Sc1cn(-c2c(Cl)cc(C(F)(F)F)cc2Cl)c2ccc(Cl)cc12` [Compound 19], the “After 3 hours (KD) knocking-down rate” value in the data set on adult cat fleas (0.01 mg/tube), in the data set on adult cat fleas (0.1 mg/tube) and in the data set with adult cat fleas (setting [1]) was 0 throughout. In addition, the “After 1 day (mortality)” value in the data set with adult cat fleas (0.01 mg/tube) was determined as 30%; in the data set on adult cat fleas (0.1 mg/tube) it was 60%; in the data set on adult cat fleas (1 mg/tube), 100%. In addition, the figures for the “After 2 days (mortality)” value with adult cat fleas (0.01 mg/tube), in the data set on adult cat fleas (0.1 mg/tube) and in the data set on adult cat fleas (1 mg/tube) were 90%, 100% and 100%, respectively.
Take `FC(F)(F)Sc1cn(-c2c(Cl)cc(C(F)(F)F)cc2Cl)c2ccccc12` [Compound 25, 1-(2,6-dichloro-4-trifluoromethylphenyl)-3-(trifluoromethylthio)indole]: the “After 3 hours (KD) knocking-down rate” value with adult cat fleas (0.001 mg/tube) is 0; in the data set on adult cat fleas (0.01 mg/tube), 0; with adult cat fleas (0.1 mg/tube), 10; with adult cat fleas (setting [1]), 100. Besides, the “After 1 day (mortality)” value came to 0% in the data set with adult cat fleas (0.001 mg/tube), 70% in the data set with adult cat fleas (0.01 mg/tube), 100% with adult cat fleas (0.1 mg/tube) and 90% with adult cat fleas (1 mg/tube). Also, the “After 2 days (mortality)” value with adult cat fleas (0.001 mg/tube) is 30%; with adult cat fleas (0.01 mg/tube), 100%; with adult cat fleas (0.1 mg/tube) it was 100%; in the data set on adult cat fleas (1 mg/tube), 100%. Further, the “Cumulative mortality After 1 day” value in the data set with std:ddy strain male mice (30 mg/kg) and with std:ddy strain male mice (100 mg/kg) was 0/5 each time. Besides, the “Cumulative mortality After 7 days” value in the data set on std:ddy strain male mice (30 mg/kg) and with std:ddy strain male mice (100 mg/kg) was 0/5 throughout. Also, the “Cumulative mortality After 14 days” value with std:ddy strain male mice (30 mg/kg) and with std:ddy strain male mice (100 mg/kg) was 0/5 in each case. In addition, the “Cumulative mortality After 3 hours” value with std:ddy strain male mice (setting [2]) and with std:ddy strain male mice (100 mg/kg) was 0/5 in each case.
`Cc1c(SC(F)(Cl)Cl)c2ccccc2n1-c1ncc(C(F)(F)F)cc1Cl` [Compound 14, 1-(3-chloro-5-trifluoromethylpyridin-2-yl)-3-(dichlorofluoromethylthio)-2-methylindole]: the “After 3 hours (KD) knocking-down rate” value in the data set with adult cat fleas (0.001 mg/tube), in the data set with adult cat fleas (0.01 mg/tube), in the data set on adult cat fleas (0.1 mg/tube) and with adult cat fleas (setting [1]) was 0 in each case. Also, the “After 1 day (mortality)” value in the data set on adult cat fleas (0.001 mg/tube) was 20%; in the data set on adult cat fleas (0.01 mg/tube), 50%; with adult cat fleas (0.1 mg/tube), 100%; with adult cat fleas (1 mg/tube) it was 100%. The “After 2 days (mortality)” value with adult cat fleas (0.001 mg/tube) is 30%; in the data set on adult cat fleas (0.01 mg/tube), 100%; in the data set with adult cat fleas (0.1 mg/tube) it was 100%; with adult cat fleas (1 mg/tube), 100%. The “Cumulative mortality After 1 day” value with std:ddy strain male mice (30 mg/kg) and in the data set with std:ddy strain male mice (100 mg/kg) was 0/5 in each case. The “Cumulative mortality After 7 days” value in the data set with std:ddy strain male mice (30 mg/kg) and with std:ddy strain male mice (100 mg/kg) was 0/5 each time. For the same compound, the “Cumulative mortality After 14 days” value with std:ddy strain male mice (30 mg/kg) and with std:ddy strain male mice (100 mg/kg) was 0/5 each time. The “Cumulative mortality After 3 hours” value in the data set with std:ddy strain male mice (setting [2]) and in the data set on std:ddy strain male mice (100 mg/kg) was 0/5 throughout.
For `FC(Cl)(Cl)Sc1cn(-c2ncc(C(F)(F)F)cc2Cl)c2ccccc12` [Compound 1, 1-(3-chloro-5-trifluoromethylpyridin-2-yl)-3-(dichlorofluoromethyl-thio)indole], the “After 3 hours (KD) knocking-down rate” value with adult cat fleas (0.001 mg/tube) is on record as 0; in the data set with adult cat fleas (0.01 mg/tube) it was 0; in the data set with adult cat fleas (0.1 mg/tube), 0; with adult cat fleas (setting [1]) it was 80. Also, the “After 1 day (mortality)” value was 10% in the data set on adult cat fleas (0.001 mg/tube), 70% with adult cat fleas (0.01 mg/tube), 100% in the data set with adult cat fleas (0.1 mg/tube) and 100% in the data set on adult cat fleas (1 mg/tube). Further, the “After 2 days (mortality)” value came out at 40% with adult cat fleas (0.001 mg/tube), 100% in the data set with adult cat fleas (0.01 mg/tube), 100% in the data set with adult cat fleas (0.1 mg/tube) and 100% in the data set with adult cat fleas (1 mg/tube).
As for `O=S(=O)(c1cn(-c2c(Cl)cc(C(F)(F)F)cc2Cl)c2ccccc12)C(F)(Cl)Cl` [Compound 32], the “After 3 hours (KD) knocking-down rate” value with adult cat fleas (0.001 mg/tube), in the data set with adult cat fleas (0.01 mg/tube), in the data set on adult cat fleas (0.1 mg/tube) and in the data set with adult cat fleas (setting [1]) was 0 in each case. Further, the “After 1 day (mortality)” value was determined as 0% with adult cat fleas (0.001 mg/tube), 0% in the data set with adult cat fleas (0.01 mg/tube), 30% in the data set on adult cat fleas (0.1 mg/tube) and 100% in the data set with adult cat fleas (1 mg/tube). Further, the “After 2 days (mortality)” value in the data set with adult cat fleas (0.001 mg/tube) came out at 0%; with adult cat fleas (0.01 mg/tube), 20%; with adult cat fleas (0.1 mg/tube) it was 100%; in the data set with adult cat fleas (1 mg/tube), 100%.
Regarding `FC(Cl)(Cl)Sc1cn(-c2ncc(C(F)(F)F)cc2Cl)c2ccc(Cl)cc12` [Compound 3], the “After 3 hours (KD) knocking-down rate” value in the data set on adult cat fleas (0.001 mg/tube), in the data set with adult cat fleas (0.01 mg/tube), in the data set with adult cat fleas (0.1 mg/tube) and with adult cat fleas (setting [1]) was 0 in each case. For the same compound, the “After 1 day (mortality)” value in the data set with adult cat fleas (0.001 mg/tube) is on record as 20%; in the data set with adult cat fleas (0.01 mg/tube) it was 10%; with adult cat fleas (0.1 mg/tube) it was 40%; in the data set with adult cat fleas (1 mg/tube) it was 50%. In addition, the “After 2 days (mortality)” value with adult cat fleas (0.001 mg/tube) is 20%; with adult cat fleas (0.01 mg/tube), 20%; with adult cat fleas (0.1 mg/tube), 70%; with adult cat fleas (1 mg/tube), 90%.

The values above are taken from patent publication US20090270459A1, “Flea control agent containing N-Substituted indole derivative” (priority 2001, published 2009).
